The molecules below were run against truncated CRBN (319-427) (Homo sapiens (Human), UniProt Q96SW2) (assay: Fluorescence binding assay (fluorescence quenching), affinity to E3-CEREBLON (CRBN)-ubiquitin ligase). Details: ubiquitination moiety, pH 6.5.
Description: Fluorescence quenching end point measurements were performed in black polystyrene 384-plates on Tecan Safire monochromator reader with the following settings: excitation 280 nm; excitation bandwidth 10.0 nm; emission collection 340 nm; emission bandwidth 20.0 nm; high sensitivity flash mode; integration time 40 μS; delay 0 μm. All measurements were done in duplicates; GraphPad Prism 5.03 was used for data evaluation, curve fitting, plotting and determination of IC50 values.
Serial dilutions of each tested ligands were mixed with truncated CRBN (319-427) to a final volume of 25 μL in the assay buffer (20 mM sodium phosphate buffer, pH 6.5, with 150 mM sodium chloride). The final concentration of CRBN in all assay will be 5-10 μM with DMSO level at 4%. A control lanes were prepared with only tested ligands without the addition of CRBN, top up with assay buffer to 25 μL. Plates were incubated for 5 minutes and analyzed using the monochromator plate reader.
IC50 is the compound concentration that causes 50% quenching of the desired activity.

truncated CRBN (319-427), sequence (Q96SW2 319-427): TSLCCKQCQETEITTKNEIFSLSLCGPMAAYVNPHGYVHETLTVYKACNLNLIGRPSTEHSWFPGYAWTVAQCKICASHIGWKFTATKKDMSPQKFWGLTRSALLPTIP

IC50 [µM] | SMILES
100 to 300 | O=C1Cc2ccc(-c3ccncc3)cc2N1 [Compound 002, 6-(pyridin-4-yl)indolin-2-one]
> 300 | O=C1Cc2ccc(-c3cccnc3)cc2N1 [Compound 003, 6-(pyridin-3-yl)indolin-2-one]
100 to 300 | O=C1Cc2ccc(-c3ccccn3)cc2N1 [Compound 004, 6-(pyridin-2-yl)indolin-2-one]
100 to 300 | Cc1cc(-c2ccc3c(c2)NC(=O)C3)ccn1 [Compound 005, 6-(2-methylpyridin-4-yl)indolin-2-one]
> 300 | Cc1cnccc1-c1ccc2c(c1)NC(=O)C2 [Compound 006, 6-(3-methylpyridin-4-yl)indolin-2-one]
100 to 300 | CC1C(=O)Nc2cc(-c3ccncc3)ccc21 (stereo not shown) [Compound 007, 3-methyl-6-(pyridin-4-yl)indolin-2-one]
> 300 | CN1C(=O)Cc2ccc(-c3ccncc3)cc21 [Compound 008, 1-methyl-6-(pyridin-4-yl)indolin-2-one]
> 300 | O=C1Cc2ccc(-c3ccnc(Cl)c3)cc2N1 [Compound 009, 6-(2-chloropyridin-4-yl)indolin-2-one]
100 to 300 | COc1cc(-c2ccc3c(c2)NC(=O)C3)ccn1 [Compound 010, 6-(2-methoxypyridin-4-yl)indolin-2-one]
100 to 300 | CCOC(=O)c1cc(-c2ccc3c(c2)NC(=O)C3)ccn1 [Compound 014, ethyl 4-(2-oxoindolin-6-yl)picolinate]
> 300 | Cn1cc(-c2ccc3c(c2)NC(=O)C3)cn1 [Compound 015, 6-(1-methyl-1H-pyrazol-4-yl)indolin-2-one]
> 300 | O=C1Cc2ccc(-c3ccc4[nH]ccc4c3)cc2N1 [Compound 016, 6-(1H-indol-5-yl)indolin-2-one]
> 300 | O=C1Cc2ccc(-c3cnc4[nH]ccc4c3)cc2N1 [Compound 017, 6-(1H-pyrrolo[2,3-b]pyridin-5-yl)indolin-2-one]
1 to 100 | O=C1Cc2ccc(-c3ccc(CN4CCNCC4)cc3)cc2N1 [Compound 018, 6-(4-(piperazin-1-ylmethyl)phenyl)indolin-2-one]
> 300 | O=C1Cc2ccc(-c3cccc(CN4CCNCC4)c3)cc2N1 [Compound 019, 6-(3-(piperazin-1-ylmethyl)phenyl)indolin-2-one]
> 300 | O=C1Cc2ccc(-c3ccc(C(=O)N4CCNCC4)cc3)cc2N1 [Compound 020, 6-(4-(piperazine-1-carbonyl)phenyl)indolin-2-one]
> 300 | O=C1Cc2ccc(-c3cccc(C(=O)N4CCNCC4)c3)cc2N1 [Compound 021, 6-(3-(piperazine-1-carbonyl)phenyl)indolin-2-one]
1 to 100 | CNC(=O)c1ccc(-c2ccc3c(c2)NC(=O)C3)cc1 [Compound 022, N-methyl-4-(2-oxoindolin-6-yl)benzamide]
1 to 100 | CNC(=O)c1cccc(-c2ccc3c(c2)NC(=O)C3)c1 [Compound 023, N-methyl-3-(2-oxoindolin-6-yl)benzamide]
> 300 | O=C1Cc2ccc(C(=O)Nc3ccccc3)cc2N1 [Compound 024, 2-oxo-N-phenylindoline-6-carboxamide]

IC50 [µM] | SMILES
> 300 | O=C1Cc2ccc(C(=O)NC3CCCCC3)cc2N1 [Compound 025, N-cyclohexyl-2-oxoindoline-6-carboxamide]
> 300 | CN1CCC(NC(=O)c2ccc3c(c2)NC(=O)C3)CC1 [Compound 027, N-(1-methylpiperidin-4-yl)-2-oxoindoline-6-carboxamide]
> 300 | CN1CCN(CCNC(=O)c2ccc3c(c2)NC(=O)C3)CC1 [Compound 028]
> 300 | O=C1Cc2ccc(C(=O)N3CCCCC3)cc2N1 [Compound 029, 6-(piperidine-1-carbonyl)indolin-2-one]
> 300 | O=C1Cc2cc(Cl)c(C(=O)N3CCCCC3)cc2N1 [Compound 030, 5-chloro-6-(piperidine-1-carbonyl)indolin-2-one]
100 to 300 | O=C1Cc2ccc(C(=O)Nc3ccncc3)cc2N1 [Compound 031, 2-oxo-N-(pyridin-4-yl)indoline-6-carboxamide]
100 to 300 | O=C1Cc2ccc(NC(=O)c3ccncc3)cc2N1 [Compound 032, N-(2-oxoindolin-6-yl)isonicotinamide]
> 300 | O=C1Cc2ccc(C(=O)NCc3cccnc3)cc2N1 [Compound 033, 2-oxo-N-(pyridin-3-ylmethyl)indoline-6-carboxamide]
> 300 | O=C1Cc2ccc(OC3CCNCC3)cc2N1 [Compound 034, 6-(piperidin-4-yloxy)indolin-2-one]
> 300 | O=C1Cc2ccc(Oc3ccnc(Cl)n3)cc2N1 [Compound 035, 6-((2-chloropyrimidin-4-yl)oxy)indolin-2-one]
> 300 | COC(=O)COc1ccc2c(c1)NC(=O)C2 [Compound 036, methyl 2-((2-oxoindolin-6-yl)oxy)acetate]
> 300 | O=C1Cc2cccc(-c3ccncc3)c2N1 [Compound 037, 7-(pyridin-4-yl)indolin-2-one]
> 300 | O=C1Cc2c(cccc2-c2ccncc2)N1 [Compound 038, 4-(pyridin-4-yl)indolin-2-one]
100 to 300 | O=C1Cc2cc(-c3ccncc3)ccc2N1 [Compound 039, 5-(pyridin-4-yl)indolin-2-one]
> 300 | COc1cc(-c2ccc3c(c2)CC(=O)N3)ccn1 [Compound 041, 5-(2-methoxypyridin-4-yl)indolin-2-one]
100 to 300 | Cc1cc(N)ncc1-c1ccc2c(c1)CC(=O)N2 [Compound 043, 5-(6-amino-4-methylpyridin-3-yl)indolin-2-one]
100 to 300 | Cc1nc(N)ccc1-c1ccc2c(c1)CC(=O)N2 [Compound 044, 5-(6-amino-2-methylpyridin-3-yl)indolin-2-one]
100 to 300 | CNc1ccc(-c2ccc3c(c2)CC(=O)N3)cn1 [Compound 046, 5-(6-(methylamino)pyridin-3-yl)indolin-2-one]
100 to 300 | CNc1cc(-c2ccc3c(c2)CC(=O)N3)ccn1 [Compound 047, 5-(2-(methylamino)pyridin-4-yl)indolin-2-one]
100 to 300 | CC(=O)Nc1ncc(-c2ccc3c(c2)CC(=O)N3)cc1C [Compound 048, N-(3-methyl-5-(2-oxoindolin-5-yl)pyridin-2-yl)acetamide]

IC50 [µM] | SMILES
> 300 | CC(=O)Nc1ccc(-c2ccc3c(c2)CC(=O)N3)c(C)n1 [Compound 049, N-(6-methyl-5-(2-oxoindolin-5-yl)pyridin-2-yl)acetamide]
1 to 100 | CC(=O)Nc1cc(C)c(-c2ccc3c(c2)CC(=O)N3)cn1 [Compound 050, N-(4-methyl-5-(2-oxoindolin-5-yl)pyridin-2-yl)acetamide]
> 300 | O=C1Cc2cc(-c3ccccc3)ccc2N1 [Compound 051, 5-phenylindolin-2-one]
> 300 | CC(C)(C)OC(=O)N1CCN(C(=O)c2ccc(-c3ccc4c(c3)CC(=O)N4)cc2)CC1 [Compound 052, tert-butyl 4-(4-(2-oxoindolin-5-yl)benzoyl)piperazine-1-carboxylate]
1 to 100 | CC(C)(C)OC(=O)N1CCN(C(=O)c2cccc(-c3ccc4c(c3)CC(=O)N4)c2)CC1 [Compound 053, tert-butyl 4-(3-(2-oxoindolin-5-yl)benzoyl)piperazine-1-carboxylate]
100 to 300 | O=C1Cc2cc(-c3ccc(C(=O)N4CCNCC4)cc3)ccc2N1 [Compound 054, 5-(4-(piperazine-1-carbonyl)phenyl)indolin-2-one]
100 to 300 | O=C1Cc2cc(-c3cccc(C(=O)N4CCNCC4)c3)ccc2N1 [Compound 055, 5-(3-(piperazine-1-carbonyl)phenyl)indolin-2-one]
100 to 300 | O=C1Cc2cc(-c3cccnc3)ccc2N1 [Compound 056, 5-(pyridin-3-yl)indolin-2-one]
> 300 | O=C1Cc2cc(-c3ccc(N4CCCCC4)nc3)ccc2N1 [Compound 057, 5-(6-(piperidin-1-yl)pyridin-3-yl)indolin-2-one]
100 to 300 | O=C1Cc2cc(C(=O)N3CCCCC3)ccc2N1 [Compound 058, 5-(piperidine-1-carbonyl)indolin-2-one]
100 to 300 | O=C1Cc2cc(NC(=O)c3ccncc3)ccc2N1 [Compound 059, N-(2-oxoindolin-5-yl)isonicotinamide]
100 to 300 | CC(=O)N1CCC(C(=O)Nc2ccc3c(c2)CC(=O)N3)CC1 [Compound 060, 1-acetyl-N-(2-oxoindolin-5-yl)piperidine-4-carboxamide]
> 300 | O=C1Nc2cc(-c3ccncc3)ccc2C1(F)F [Compound 061, 3,3-difluoro-6-(pyridin-4-yl)indolin-2-one]
> 300 | CC1(C)C(=O)Nc2cc(-c3ccncc3)ccc21 [Compound 062, 3,3-dimethyl-6-(pyridin-4-yl)indolin-2-one]
> 300 | O=C1Cc2ccc(C3=CCN(C(=O)OCc4ccccc4)CC3)cc2N1 [Compound 063, benzyl 4-(2-oxoindolin-6-yl)-3,6-dihydropyridine-1(2H)-carboxylate]
> 300 | O=C1Cc2ccc(-c3ccc(N4CCCCC4)nc3)cc2N1 [Compound 064, 6-(6-(piperidin-1-yl)pyridin-3-yl)indolin-2-one]
> 300 | O=C1Cc2ccc(-c3ccc(N4CCNCC4)nc3)cc2N1 [Compound 065, 6-(6-(piperazin-1-yl)pyridin-3-yl)indolin-2-one]
> 300 | CCOC(=O)c1cc(-c2ccc3c(c2)NC(=O)C3)ccn1 [Compound 066, ethyl 4-(2-oxoindolin-6-yl)picolinate]

From patent US11542274B1, “Therapeutic compounds and methods of use thereof” (AGENCY FOR SCIENCE, TECHNOLOGY AND RESEARCH (A*STAR), priority 2019, dated 2023)
